Results taken from US9365548B2, “Benzoimidazol-2-yl pyrimidines and pyrazines as modulators of the histamine H4 receptor” (Janssen Pharmaceutica NV, priority 2006, dated 2016).

Biological target: T1, Recombinant Human Histamine H4 Receptor (Homo sapiens, UniProt Q9H3N8)
T1 construct: expressed in transfected cells; host or cells: SK-N-MC cells or COS7 cells, transiently transfected; cell membranes used
Experiment: Binding Assay on Recombinant Human Histamine H4 Receptor
Settings: competition binding with 3H-histamine, membranes of SK-N-MC or COS7 cells expressing human histamine H4 receptor; Ki by Cheng-Prusoff (KD 5 nM, ligand 5 nM); average of results obtained
Text: Additional examples of embodiments of this invention are provided by hemitartrate salts of compounds of Formula (I) and by hydrates, such as monohydrates and dihydrates, of compounds of Formula (I). […]

Ki [nM]	Compound
81	COc1ccc2[nH]c(-c3cnc(NCCCC4CCN(C)CC4)nc3C)nc2c1 [Example 37, [5-(5-Methoxy-1H-benzoimidazol-2-yl)-4-methyl-pyrimidin-2-yl]-[3-(1-methyl-piperidin-4-yl)-propyl]-amine]
2	Cc1nc(NCCCC2CCN(C)CC2)ncc1-c1nc2c(Cl)cc(C(F)(F)F)cc2[nH]1 [Example 38, [5-(4-Chloro-6-trifluoromethyl-1H-benzoimidazol-2-yl)-4-methyl-pyrimidin-2-yl]-[3-(1-methyl-piperidin-4-yl)-propyl]-amine]
15	Cc1nc(NCCCC2CCN(C)CC2)ncc1-c1nc2cc(Cl)c(F)cc2[nH]1 [Example 39, [5-(5-Chloro-6-fluoro-1H-benzoimidazol-2-yl)-4-methyl-pyrimidin-2-yl]-[3-(1-methyl-piperidin-4-yl)-propyl]-amine]
7	Cc1nc(NCCCC2CCN(C)CC2)ncc1-c1nc2cc(Cl)ccc2[nH]1 [Example 40, [5-(5-Chloro-1H-benzoimidazol-2-yl)-4-methyl-pyrimidin-2-yl]-[3-(1-methyl-piperidin-4-yl)-propyl]-amine]
6	Cc1nc(NCCCC2CCN(C)CC2)ncc1-c1nc2cc(Cl)c(Cl)cc2[nH]1 [Example 41, [5-(5,6-Dichloro-1H-benzoimidazol-2-yl)-4-methyl-pyrimidin-2-yl]-[3-(1-methyl-piperidin-4-yl)-propyl]-amine]
22	CCc1nc(NCCCC2CCN(C)CC2)ncc1-c1nc2c(C)cc(C)cc2[nH]1 [Example 42, [5-(4,6-Dimethyl-1H-benzoimidazol-2-yl)-4-ethyl-pyrimidin-2-yl]-[3-(1-methyl-piperidin-4-yl)-propyl]-amine]
110	CCc1nc(NCCCC2CCN(C)CC2)ncc1-c1nc2c(C)cccc2[nH]1 [Example 43, [4-Ethyl-5-(4-methyl-1H-benzoimidazol-2-yl)-pyrimidin-2-yl]-[3-(1-methyl-piperidin-4-yl)-propyl]-amine]
560	Cc1cccc2[nH]c(-c3cnc(NCCCC4CCN(C)CC4)nc3C3CC3)nc12 [Example 44, [4-Cyclopropyl-5-(4-methyl-1H-benzoimidazol-2-yl)-pyrimidin-2-yl]-[3-(1-methyl-piperidin-4-yl)-propyl]-amine]
390	Cc1ccc2[nH]c(-c3cnc(NCCCC4CCN(C)CC4)nc3C3CC3)nc2c1C [Example 45, [4-Cyclopropyl-5-(4,5-dimethyl-1H-benzoimidazol-2-yl)-pyrimidin-2-yl]-[3-(1-methyl-piperidin-4-yl)-propyl]-amine]
230	Cc1cc(F)cc2[nH]c(-c3cnc(NCCCC4CCN(C)CC4)nc3C3CC3)nc12 [Example 46, [4-Cyclopropyl-5-(6-fluoro-4-methyl-1H-benzoimidazol-2-yl)-pyrimidin-2-yl]-[3-(1-methyl-piperidin-4-yl)-propyl]-amine]
99	Cc1cc(C)c2nc(-c3cnc(NCCCC4CCN(C)CC4)nc3C3CC3)[nH]c2c1 [Example 47, [4-Cyclopropyl-5-(4,6-dimethyl-1H-benzoimidazol-2-yl)-pyrimidin-2-yl]-[3-(1-methyl-piperidin-4-yl)-propyl]-amine]
140	Cc1c(F)ccc2[nH]c(-c3cnc(NCCCC4CCN(C)CC4)nc3C3CC3)nc12 [Example 48, [4-Cyclopropyl-5-(5-fluoro-4-methyl-1H-benzoimidazol-2-yl)-pyrimidin-2-yl]-[3-(1-methyl-piperidin-4-yl)-propyl]-amine]
29	[5-(4,5-Dimethyl-1H-benzoimidazol-2-yl)-4-ethyl-pyrimidin-2-yl]-methyl-[3-(1-methyl-piperidin-4-yl)-propyl]-amine [Example 8]
